Experimental data reported in US9676725B2, “S-crystal form of ivabradine hydrochloride, and preparation method and pharmaceutical composition thereof” (Beijing Lunarsun Pharmaceutical Co., LTD., priority 2014, dated 2017).

Legend:
Format in all cases: physicochemical
[1] = Humidity stability test (moisture and XRD); settings: for Moisture: open, humidity 43.1±0.5%, room temperature (20° C.); for Change of crystal form on water absorption: stored in open condition under humidity 43.1±0.5%, water content up to 3%, hydrochloride
Protocol: The S crystal form of ivabradine hydrochloride as prepared in Example 2 was spread on watch glass to form a thin layer and placed in the upper part of a desiccator, and saturated potassium carbonate solution was placed in the lower part of the desiccator, the humidity in the desiccator was detected (humidity: 43.1±0.5%), conditions were controlled at room temperature (20° C.) and constant humidity, and samples were taken at 1 h, 8 h, 16 h, 24 h, 48 h, 96 h for moisture and XRD tests, and the results are shown in the following table.

[2] = High-temperature stability test at 60° C.; settings: for Content / Properties / Relevant substances: Max single impurity / Relevant substances: Total impurities: 60° C.
From the text: Thus, the product could be stored stably in storehouse at room temperature.

[3] = Storage of crystal form at room temperature (crystal form transformation); settings: 10 days storage at room temperature
From the text: Although many crystal forms have been reported in the documents, their stability and preparation methods are not satisfied. […] Delta crystal form contains acetonitrile which can hardly be removed, and it is difficult to distinguish from acetonitrile-containing crystal form. In addition, ivabradine hydrochloride as a hydrochloride is very easy to absorb moisture, while the change of water content may result in changes of many crystal forms, for example, the change between γd and γ, the change between βd and β.

In the case of `COc1cc2c(cc1OC)CC(=O)N(CCCN(C)C[C@H]1Cc3cc(OC)c(OC)cc31)CC2.Cl` [3-{3-[{[(7S)-3,4-dimethoxybicyclo[4.2.0]octa-1,3,5-trien-7-yl]-methyl}(methyl)-amino]propyl}-7,8-dimethoxy-1,3,4,5-tetrahydro-2H-3-benzazepin-2-one hydrochloride], the Moisture ([1]; 1 h) is reported as 0.46%, the Moisture ([1]; 8 h) is reported as 0.55% and the Moisture ([1]; 16 h) is reported as 0.60%. The Moisture ([1]; 24 h) was 0.82%, the Moisture ([1]; 48 h) was 1.4% and the Moisture ([1]; 96 h) was 3.0%. The “Change of crystal form on water absorption” value ([1]; listed as S crystal form) was “does not change”, the “Change of crystal form on water absorption” value ([1]; listed as the product) was “did not change” and the Content ([2]; the 0th day) was 99.50%. For the same compound, the Properties ([2]; the 0th day) was “White”, the “Relevant substances: Max single impurity” value ([2]; the 0th day) was 0.04% and the “Relevant substances: Total impurities” value ([2]; the 0th day) was 0.19%. For the same compound, the Content ([2]; the 5th day) was 99.40%, the Properties ([2]; the 5th day) was “White” and the “Relevant substances: Max single impurity” value ([2]; the 5th day) was 0.05%. For the same compound, the “Relevant substances: Total impurities” value ([2]; the 5th day) was 0.20%, the Content ([2]; the 10th day) was 99.50% and the Properties ([2]; the 10th day) was “White”. The “Relevant substances: Max single impurity” value ([2]; the 10th day) was 0.05%, the “Relevant substances: Total impurities” value ([2]; the 10th day) was 0.20% and the “Change of indicators, e.g. purity, versus the 0th day” value ([2]; stored at 60° C. for 10 days) was “did not change significantly”. The “Stability of crystal form” value ([2]; stored at 60° C. for 10 days) was “very stable”.
For `COc1cc2c(cc1OC)CC(=O)N(CCCN(C)C[C@H]1Cc3cc(OC)c(OC)cc31)CC2.Cl` [δd crystal form, 3-{3-[{[(7S)-3,4-dimethoxybicyclo[4.2.0]octa-1,3,5-trien-7-yl]-methyl}(methyl)-amino]propyl}-7,8-dimethoxy-1,3,4,5-tetrahydro-2H-3-benzazepin-2-one hydrochloride], the “Crystal form transformation on storage” value [3] was “most of the δd crystal form will transform into α crystal form”.
